ChEMBL document CHEMBL1201862, “PubChem BioAssay data set” (2004)
Each block holds one compound with its values, some of them ahead of it. The source made the active and inactive calls.

Key:
[1] = target: Sphingosine 1-phosphate receptor 1 (Homo sapiens, UniProt P21453); experiment: Fluorescence-based counterscreen assay for S1P4 agonists: Cell-based dose response high throughput screening assay to identify agonists of the Sphingosine 1-Phosphate Receptor 1 (S1P1). [Related pubchem assays (depositor defined):AID1509, AID1523, AID1801, AID463107, AID463118, AID463119, AID463122, AID463123, AID463129, AID463225, AID504400, AID504460]; assay type: functional
[2] = target: Sphingosine 1-phosphate receptor 4 (Homo sapiens, UniProt O95977); experiment: Fluorescence dose response cell-based high throughput screening assay for agonists of the Sphingosine 1-Phosphate Receptor 4 (S1P4). [Related pubchem assays: 1509 (Primary screen.), 1523 (Confirmation screen in triplicates.)]; assay type: functional
[3] = target: Nucleotide-binding oligomerization domain-containing protein 1 (Homo sapiens, UniProt Q9Y239); experiment: SAR analysis of compounds that inhibit NOD1 - Set 3. [Related pubchem assays (depositor defined):AID1566, AID1575, AID1578, AID1849, AID1852, AID2333, AID2335, AID2466]; assay type: functional
Tumor necrosis factor = Tumor necrosis factor (Homo sapiens, UniProt P01375); experiment: analog potency on TNFa NF-kB signaling – cell-based, set 3, SAR follow-up (AID 2801); assay type: functional
HEK293 = experiment: SAR analysis of compounds that are cytotoxic to HEK293 - Set 3. [Related pubchem assays (depositor defined):AID1575, AID1578, AID1848, AID1849, AID2001, AID2333, AID2334, AID2335, AID2337, AID2469]; assay type: functional, cell-based; conditions: Homo sapiens
[4] = target: Nucleotide-binding oligomerization domain-containing protein 2 (Homo sapiens, UniProt Q9HC29); experiment: inhibition of MDP-driven NOD2 NF-kB reporter – cell-based, set 3, SAR follow-up (AID 2799); assay type: functional
Mu-type opioid receptor = Mu-type opioid receptor (Homo sapiens, UniProt P35372); experiment: SAR Analysis of Agonists of the MOR Receptor using an Image-Based Assay - Set 3. [Related pubchem assays (depositor defined):AID1777, AID1785, AID1786, AID1966, AID2133, AID2136, AID2284, AID2285, AID2352]; assay type: functional
[5] = target: Delta-type opioid receptor (Homo sapiens, UniProt P41143); experiment: SAR Analysis of Agonists of the DOR Receptor using an Image-Based Assay - Set 3. [Related pubchem assays (depositor defined):AID1777, AID1786]; assay type: functional
[6] = target: T1, Kappa-type opioid receptor (Homo sapiens, UniProt P41145); experiment: SAR analysis of small molecule agonists of the kappa opioid receptor via a luminescent beta-arrestin assay - Set 3. [Related pubchem assays (depositor defined):AID1777, AID1785, AID1786, AID1966, AID2133, AID2136, AID2284, AID2500]; assay type: functional
[7] = target: T1, Kappa-type opioid receptor; experiment: kappa opioid receptor activation by imaging – image-based, set 3, SAR follow-up (AID 488833); assay type: functional
[8] = PhoP promoter GFP reporter reduction in Typhimurium – purified and synthesized compounds, set 2, PhoP regulon inhibitor project, dose response (AID 2831); assay type: functional
Mucolipin-3 = Mucolipin-3 (Homo sapiens, UniProt Q8TDD5); experiment: Fluorescence counterscreen assay for […] agonists: dose response cell-based high-throughput screening assay to identify agonists of the transient receptor potential channel ML3 (TRPML3). [Related pubchem assays: 1424, 1448 ]; assay type: functional
Ion channel NompC = Ion channel NompC (Danio rerio, UniProt Q7T1G6); experiment: Dose response cell-based high-throughput screening assay for agonists of the transient receptor potential channel N1 (TRPN1). [Related pubchem assays (depositor defined):AID1424, AID1448]; assay type: functional
[9] = decrease of insulin promoter-GFP reporter – imaging, high-content screening, mouse beta cells (AID 1628); assay type: functional; conditions: MIN6
[10] = MIN6 cell viability loss – mouse insulinoma, cytotoxicity control, dose response (AID 2122); assay type: functional;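 further: confirmatory high-throughput counterscreen run to flag cytotoxic compounds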
[11] = target: T2, Carboxy-terminal domain RNA polymerase II polypeptide A small phosphatase 1 (Homo sapiens, UniProt Q9GZU7); experiment: CTDSP1 inhibitors, concentration-response, biochemical, absorbance readout, ultra-high-throughput screen actives (AID 540297); assay type: functional
T2 sequence (Q9GZU7 whole entry): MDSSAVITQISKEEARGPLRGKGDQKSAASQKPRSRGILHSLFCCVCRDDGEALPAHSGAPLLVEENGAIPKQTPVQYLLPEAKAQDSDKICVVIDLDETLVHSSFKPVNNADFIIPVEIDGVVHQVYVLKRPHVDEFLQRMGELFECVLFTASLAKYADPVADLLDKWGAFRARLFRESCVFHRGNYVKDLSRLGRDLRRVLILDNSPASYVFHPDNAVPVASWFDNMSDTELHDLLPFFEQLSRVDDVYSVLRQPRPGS

T1 sequence (P41145 whole entry): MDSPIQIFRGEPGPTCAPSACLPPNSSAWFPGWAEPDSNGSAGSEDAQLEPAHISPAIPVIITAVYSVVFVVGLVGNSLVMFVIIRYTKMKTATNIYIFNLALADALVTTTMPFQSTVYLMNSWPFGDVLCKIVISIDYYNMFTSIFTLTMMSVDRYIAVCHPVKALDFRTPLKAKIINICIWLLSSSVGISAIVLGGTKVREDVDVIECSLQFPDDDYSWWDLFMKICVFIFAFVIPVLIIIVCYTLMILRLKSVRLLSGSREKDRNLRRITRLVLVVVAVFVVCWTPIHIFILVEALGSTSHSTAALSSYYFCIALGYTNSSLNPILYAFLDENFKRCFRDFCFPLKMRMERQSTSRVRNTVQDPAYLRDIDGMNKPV
Sequence of Sphingosine 1-phosphate receptor 1 (P21453 whole entry): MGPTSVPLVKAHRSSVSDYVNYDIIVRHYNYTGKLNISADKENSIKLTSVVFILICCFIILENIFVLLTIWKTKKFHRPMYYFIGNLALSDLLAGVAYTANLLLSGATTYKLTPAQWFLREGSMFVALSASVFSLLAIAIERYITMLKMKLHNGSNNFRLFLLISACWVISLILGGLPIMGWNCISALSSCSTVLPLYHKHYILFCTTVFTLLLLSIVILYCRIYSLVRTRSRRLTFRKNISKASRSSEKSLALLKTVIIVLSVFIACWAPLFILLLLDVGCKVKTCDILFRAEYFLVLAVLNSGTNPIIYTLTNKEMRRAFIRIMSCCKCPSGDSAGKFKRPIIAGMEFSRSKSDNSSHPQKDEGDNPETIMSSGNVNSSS
Sequence of Nucleotide-binding oligomerization domain-containing protein 2 (Q9HC29 whole entry, the tested form may be a part): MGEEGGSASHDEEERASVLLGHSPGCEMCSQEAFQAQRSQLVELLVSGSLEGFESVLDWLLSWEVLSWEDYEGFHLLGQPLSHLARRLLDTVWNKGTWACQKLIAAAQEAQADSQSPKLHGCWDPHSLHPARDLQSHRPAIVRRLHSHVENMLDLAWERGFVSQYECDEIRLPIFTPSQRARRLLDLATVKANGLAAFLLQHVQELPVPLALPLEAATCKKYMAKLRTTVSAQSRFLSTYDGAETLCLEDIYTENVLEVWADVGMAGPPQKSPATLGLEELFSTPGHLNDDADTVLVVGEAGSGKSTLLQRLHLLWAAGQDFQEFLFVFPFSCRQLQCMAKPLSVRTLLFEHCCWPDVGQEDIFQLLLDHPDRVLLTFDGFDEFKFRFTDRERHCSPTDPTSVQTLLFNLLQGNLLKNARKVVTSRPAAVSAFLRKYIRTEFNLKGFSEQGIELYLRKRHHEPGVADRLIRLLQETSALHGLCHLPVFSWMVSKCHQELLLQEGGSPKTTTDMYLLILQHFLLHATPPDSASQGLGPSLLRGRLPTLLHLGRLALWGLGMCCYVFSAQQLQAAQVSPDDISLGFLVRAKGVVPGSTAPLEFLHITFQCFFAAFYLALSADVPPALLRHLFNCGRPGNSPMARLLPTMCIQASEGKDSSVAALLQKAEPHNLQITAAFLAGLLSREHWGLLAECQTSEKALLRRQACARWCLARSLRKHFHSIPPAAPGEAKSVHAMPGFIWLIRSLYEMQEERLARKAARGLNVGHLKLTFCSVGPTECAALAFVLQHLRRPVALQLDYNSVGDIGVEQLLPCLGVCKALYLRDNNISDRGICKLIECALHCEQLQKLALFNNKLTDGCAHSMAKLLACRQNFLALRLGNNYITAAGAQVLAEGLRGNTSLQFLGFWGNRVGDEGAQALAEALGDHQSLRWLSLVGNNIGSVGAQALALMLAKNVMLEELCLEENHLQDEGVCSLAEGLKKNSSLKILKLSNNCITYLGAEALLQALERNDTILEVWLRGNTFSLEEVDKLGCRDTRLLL
Sequence of Mu-type opioid receptor (P35372 whole entry): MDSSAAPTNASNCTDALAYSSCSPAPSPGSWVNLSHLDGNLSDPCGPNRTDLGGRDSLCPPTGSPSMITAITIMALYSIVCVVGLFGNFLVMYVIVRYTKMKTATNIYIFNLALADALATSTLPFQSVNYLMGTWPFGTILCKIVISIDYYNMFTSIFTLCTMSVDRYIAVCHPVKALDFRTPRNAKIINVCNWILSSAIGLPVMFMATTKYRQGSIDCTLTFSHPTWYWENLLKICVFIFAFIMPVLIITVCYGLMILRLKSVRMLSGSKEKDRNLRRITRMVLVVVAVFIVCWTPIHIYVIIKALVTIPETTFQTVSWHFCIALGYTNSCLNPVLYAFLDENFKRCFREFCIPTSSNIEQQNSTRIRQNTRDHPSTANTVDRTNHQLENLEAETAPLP
Sequence of Tumor necrosis factor (P01375 whole entry): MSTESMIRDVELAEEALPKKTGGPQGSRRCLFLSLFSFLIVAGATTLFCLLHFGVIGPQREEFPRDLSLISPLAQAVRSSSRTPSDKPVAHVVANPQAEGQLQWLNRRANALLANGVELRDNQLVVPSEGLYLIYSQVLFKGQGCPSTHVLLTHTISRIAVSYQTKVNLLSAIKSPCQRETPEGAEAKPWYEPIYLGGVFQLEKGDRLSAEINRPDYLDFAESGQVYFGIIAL
Sequence of Mucolipin-3 (Q8TDD5 whole entry): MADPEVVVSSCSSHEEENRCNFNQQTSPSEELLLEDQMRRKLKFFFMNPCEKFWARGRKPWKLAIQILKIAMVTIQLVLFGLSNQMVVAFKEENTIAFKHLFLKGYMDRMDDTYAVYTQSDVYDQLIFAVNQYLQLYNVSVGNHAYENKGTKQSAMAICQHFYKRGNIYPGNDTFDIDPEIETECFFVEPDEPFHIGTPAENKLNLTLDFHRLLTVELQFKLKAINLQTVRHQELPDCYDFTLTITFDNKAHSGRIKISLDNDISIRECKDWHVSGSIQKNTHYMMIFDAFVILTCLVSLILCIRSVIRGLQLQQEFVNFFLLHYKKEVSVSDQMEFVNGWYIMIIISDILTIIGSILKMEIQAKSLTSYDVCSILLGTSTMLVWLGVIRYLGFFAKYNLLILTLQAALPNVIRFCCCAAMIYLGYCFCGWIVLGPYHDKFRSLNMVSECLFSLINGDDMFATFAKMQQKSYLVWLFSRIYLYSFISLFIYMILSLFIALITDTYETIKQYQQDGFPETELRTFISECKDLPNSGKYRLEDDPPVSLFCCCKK
Sequence of Delta-type opioid receptor (P41143 whole entry): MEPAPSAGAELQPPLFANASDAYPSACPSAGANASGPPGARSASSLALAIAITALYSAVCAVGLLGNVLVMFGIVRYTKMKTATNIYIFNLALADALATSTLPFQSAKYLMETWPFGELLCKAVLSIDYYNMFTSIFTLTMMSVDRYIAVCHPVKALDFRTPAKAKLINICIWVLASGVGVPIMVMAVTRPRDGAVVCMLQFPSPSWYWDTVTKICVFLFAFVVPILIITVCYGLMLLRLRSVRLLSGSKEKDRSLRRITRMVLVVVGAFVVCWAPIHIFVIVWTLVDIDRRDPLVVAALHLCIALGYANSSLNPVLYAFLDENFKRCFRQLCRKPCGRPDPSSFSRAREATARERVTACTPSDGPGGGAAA
Sequence of Nucleotide-binding oligomerization domain-containing protein 1 (Q9Y239 whole entry, the tested form may be a part): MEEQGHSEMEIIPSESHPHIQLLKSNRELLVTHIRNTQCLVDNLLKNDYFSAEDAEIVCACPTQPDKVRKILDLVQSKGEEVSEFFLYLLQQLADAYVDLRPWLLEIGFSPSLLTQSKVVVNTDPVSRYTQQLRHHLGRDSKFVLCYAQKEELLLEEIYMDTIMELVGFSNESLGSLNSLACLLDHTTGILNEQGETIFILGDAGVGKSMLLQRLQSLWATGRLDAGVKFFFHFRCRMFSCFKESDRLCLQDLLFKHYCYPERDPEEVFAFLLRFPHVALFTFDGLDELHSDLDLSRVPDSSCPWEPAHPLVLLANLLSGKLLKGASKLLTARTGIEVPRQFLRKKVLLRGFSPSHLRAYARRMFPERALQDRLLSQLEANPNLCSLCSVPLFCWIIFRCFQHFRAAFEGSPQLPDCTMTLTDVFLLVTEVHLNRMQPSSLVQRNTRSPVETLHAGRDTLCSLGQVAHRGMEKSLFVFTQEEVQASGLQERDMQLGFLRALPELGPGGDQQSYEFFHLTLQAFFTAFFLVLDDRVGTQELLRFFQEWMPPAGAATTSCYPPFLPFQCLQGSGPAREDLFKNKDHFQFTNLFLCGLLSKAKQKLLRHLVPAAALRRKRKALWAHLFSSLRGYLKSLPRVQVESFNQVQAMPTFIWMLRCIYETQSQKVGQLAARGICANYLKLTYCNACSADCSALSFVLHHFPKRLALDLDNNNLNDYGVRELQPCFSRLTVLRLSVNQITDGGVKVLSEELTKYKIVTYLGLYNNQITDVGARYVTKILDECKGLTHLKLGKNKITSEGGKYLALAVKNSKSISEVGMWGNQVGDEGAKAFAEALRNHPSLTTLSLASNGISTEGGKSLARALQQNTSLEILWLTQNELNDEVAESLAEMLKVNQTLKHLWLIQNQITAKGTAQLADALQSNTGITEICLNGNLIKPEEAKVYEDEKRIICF
Sequence of Sphingosine 1-phosphate receptor 4 (O95977 whole entry, the tested form may be a part): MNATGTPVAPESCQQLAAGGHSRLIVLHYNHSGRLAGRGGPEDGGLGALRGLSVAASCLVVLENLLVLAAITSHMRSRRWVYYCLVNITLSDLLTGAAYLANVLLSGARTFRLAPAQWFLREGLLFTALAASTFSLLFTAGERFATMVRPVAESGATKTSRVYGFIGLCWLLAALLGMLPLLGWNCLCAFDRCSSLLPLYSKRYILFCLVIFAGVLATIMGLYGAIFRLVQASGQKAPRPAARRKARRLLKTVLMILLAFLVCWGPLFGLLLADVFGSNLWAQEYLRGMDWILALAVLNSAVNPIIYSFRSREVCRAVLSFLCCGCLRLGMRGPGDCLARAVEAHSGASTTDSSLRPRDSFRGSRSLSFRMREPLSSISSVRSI

SMILES: CCOC(=O)c1c(-n2c(C)cc(C=O)c2C)sc2c1CCCC2
- EC50 [1]: > 49.8 µM (inactive)
- EC50 [2]: > 16.6 µM (not active)

SMILES: N#Cc1ccccc1S(=O)(=O)n1c(N)nc2ccccc21
- IC50 [3]: > 20 µM (inactive)
- IC50 (Tumor necrosis factor): > 20 µM (inactive)
- IC50 (HEK293): > 20 µM (inactive)
- IC50 [4]: > 20 µM (inactive)

SMILES: CCCc1ccc(C(=O)NC(=O)c2ccccc2O)cc1
- EC50 (Mucolipin-3): 14.7 µM (not active)
- EC50 (Ion channel NompC): > 3.32 µM (inactive)
- IC50 [9]: 4.87 µM (active)
- IC50 [10]: 3.97 µM (active)
- IC50 [11]: 8.68 µM (active)

Next, values leading:

- EC50 (Mu-type opioid receptor): > 32 µM (inactive)
- EC50 [5]: > 32 µM (inactive)
- EC50 [6]: 3.66 µM (active)
- EC50 [7]: 2.17 µM (active)
SMILES: CC(C)c1ccc(CSc2nnc(-c3ccccn3)n2Cc2cccs2)cc1

- IC50 [8]: > 150 µM (active)
SMILES: COc1ccc(CNC(=S)Nc2ccncc2)cc1
